Values joined by “and” are separate entries in the source; they are usually repeats but may differ in a detail not shown here. Identical values can stand only once.

One series has as its system Pasteurella multocida. Nature of the series: Pasteurella multocida infection in chicks. Particulars: for activity alone against Pasteurella multocida: Example 3 Experiment 1; for Cumulative Mortality on day 1: groups of 10 chicks, 15:85 TMP SQX p.p.m / DMHP p.p.m: b654 25/20, b655 25/10, b656 25/5, b657 12.5/20, b658 12.5/10, b659 12.5/5, b660 50/-, b661 25/-, b662 12.5/-, b665 TMP 15, b666 TMP 30, b667 SQX 85, b669 SQX 42.5. The format is in vivo.

A further series relates to E. tenella. The series can be described thus: coccidiosis screening test in chicks, E. tenella. The format is in vivo, Eimeria tenella. The following applies: Expt. 4; 100,000 oocysts; p.p.m SQX/DV/DMHP: b374 10/-/-; b375 -/20/-; b376 -/-/10; b377 10/-/10; b378 -/20/10; b379 10/20/-; b381 10/20/10; b382 20/-/-; b383 -/40/-; b384 -/-/20; b385 20/-/20; b386 -/40/20; b387 20/40/-; b389 20/40/20. Here is the method: "Screening tests" were performed to establish the effectiveness of the compounds of formula (I) both alone and in combination with a competitor and or an inhibitor and to determine the most useful levels of relative concentrations of each component in combatting or suppressing coccidiosis.
Groups of Ranger cockerels, housed in small, heated cages with wire floors situated in enironmentally controlled isolation rooms, were infected orally with sporulated oocysts of the Eimeria spp such as E. tenella or E. acervulina. The appropriate test compound(s), (DMHP, sulphaquinoxaline (SQX) or diaveridine (DV) or any combination of these) were incorporated in a small quantity of specially formulated laboratory ration deficient in Vitamin K (`L.D.4 mash`), as a 1/10 pre-mix, which was then mixed into the diet on a horizontal roller drum mixed and administered to groups of chicks one day prior to infection, leaving some groups as untreated controls. Administration was continued for several days, for example about 8 or 9 days.
The amount of damage, marked by lesions in the caecal walls was investigated in those chicks that died during the course of the experiment, and in those sacrificed on the final day of administration, and compared with the untreated controls as a basis for the determination of therapeutic activity. In addition the mortality rate and the percentage weight gains in the various groups were assessed. A marked or definite effect of the administered drug could be recognised even when the mortality rates were similar or identical, since the increase in the weight gains and the reduction of the extension of lesions indicated by the lesion score, is characteristic of an improvement. […]
4:1 sulphaquinoxaline/diaveridine mixtures at levels of 80/20, 60/15, 40/10 and 20/5 p.p.m. were administered alone and in combination with a wide range of low concentrations of DMHP to the birds.
The results of these screening tests are set forth in Table 4 showing the concentration of the various component compounds in parts per million of the bird's diet, the mortality from coccidiosis, the percentage weight gain, the lesion score the oocyst output, and the activity. The caecal lesion index is calculated using a score system where: […]
In addition a score of 4 is assigned to any bird that dies of coccidiosis during the experiment. [formula] In the activity column, +++, ++, +, ± and - relate respectively to very high, high, slight, doubtful and nil activity of the test drug against the Eimeria infection.

A further series concerns coccidiosis. The series can be described thus: potentiating effect against coccidiosis. It is filed as in vivo. Particulars: replacement of DMHP.
Series [1] addresses T1, hydroxymethyldihydropteridine pyrophosphokinase (HMPPS) (Escherichia coli, UniProt P26281).
T1 construct: obtained from an extract of E. coli; endogenous in cells; host or cells: E. coli extract; HMPPS separated from synthetase on Sephadex G-100 (method of Richey and Brown 1969)
Nature of the series: HMPPS assay: transfer of terminal phosphate of ATP-γ-P^32 to Pt. The format is biochemical, E. coli. Particulars: read-out: IC50. From the text:
(a) An assay for HMPPS was developed in which the transfer of the terminal phosphate of ATP-γ-P^32 to Pt could be monitored and correlated with the amount of inhibition of HMPPS by the compound under test.
The compound under test was incorporated into various formulations comprising metabolites and enzymes contained in test tubes, as indicated in TABLE 1.
II--a source of HMMP S, obtained from an extract of E. coli and separated from `synthetase` on Sephadex G-100, according to the method of Richey and Brown in J. Biol. Chem. 244, 1582-1592 (1969)
Control tubes 10 to 12 include a source of both HMPPS and synthetase, unlabelled ATP, 0.1M MgCl2.6H2 O and labelled pAB.
Tubes 1 to 9 containing the amounts of components shown in the Table, were filled up to 200 μl with distilled water, incubated for 60 minutes at 37° C. and then chilled on ice. Dextrose (20 μl containing 72.1 mg/ml) and hexokinase (5 μl containing 2000 units/ml) were added to the solution, which was then allowed to stand at room temperature for 15 minutes. `Darco-G-60` (Registered Trade Mark) (10 mg) was added to each tube and the contents mixed periodically for 10 minutes. The charcoal was removed through a "Millipore AP 250 2200" (Registered Trade Mark) filter and the filter was washed with three 10 ml portions of cold water. The Charcoal and the filter were then radioactively counted.
The radioactive count from the contents of tubes 2 and 3 was taken as the maximum count, since these tubes contained no test compound and thus gave 0% enzyme inhibition. The percentage inhibition produced by the contents of the remaining tubes could then be calculated by relating their radioactive count to the maximum, as determined above.

Series [2] has as its system Staphylococcus aureus CN 491. The series can be described thus: testing discs on standard nutrient medium. It is filed as cell-based. Particulars: per 6 mm filterpaper disc: TMP 1.25 μg, SMX 23.75 μg, DMHP 100 μg, as in label.
The subject of series [3] is Pseudomonas aeruginosa CN 200. The series can be described thus: testing discs on standard nutrient medium. The format is cell-based. The following applies: per 6 mm filterpaper disc: TMP 1.25 μg, SMX 23.75 μg, DMHP 100 μg, as in label.
The test system of series [4] is Streptococcus faecalis CN 478. The series can be described thus: testing discs on standard nutrient medium. It is filed as cell-based. The following applies: per 6 mm filterpaper disc: TMP 1.25 μg, SMX 23.75 μg, DMHP 100 μg, as in label.
Series [5] deals with Staphylococcus aureus. The series can be described thus: M.I.C. in Wellcome Nutrient Agar, 18 hours at 37° C. It is filed as cell-based. Particulars: DMHP Nil.
Another series has as its system Proteus vulgaris CN 329. The series can be described thus: testing discs on standard nutrient medium. The following applies: per 6 mm filterpaper disc: TMP 1.25 μg, SMX 23.75 μg, DMHP 100 μg, as in label. It is filed as cell-based.
The test system of a further series is Escherichia coli CN 314. The series can be described thus: testing discs on standard nutrient medium. It is filed as cell-based. Particulars: per 6 mm filterpaper disc: TMP 1.25 μg, SMX 23.75 μg, DMHP 100 μg, as in label.
Series [6] has as its system Staphylococcus aureus N 491. Nature of the series: growth rate inhibition, turbidometric, Wellcome Nutrient Broth. The format is cell-based.
Series [7] concerns Staphylococcus aureus. Nature of the series: microbe, parasite or virus in culture. The following applies: for Percentage of inoculum viable at 24 hrs.: DMHP Nil, Test 2. Here is the method:
The results are shown in Table 9 in which the bactericidal activity is expressed as the percentage of the original inoculum, measured by viable counts, which was alive after 24-hours' incubation at 37° C. The inoculum used gave a final concentration of 10^6 organisms per ml.

Where [8] appears, read: Staphylococcus aureus, N491, 7 h, read-out: Percentage of inhibition at 7 hrs.
The mark [9] stands for this setting: Table 6, doses as in E56, listed as TMP.
The mark [10] stands for this setting: Staphylococcus aureus, 24 h, read-out: Percentage of inoculum viable at 24 hrs.

T1 sequence (P26281 whole entry): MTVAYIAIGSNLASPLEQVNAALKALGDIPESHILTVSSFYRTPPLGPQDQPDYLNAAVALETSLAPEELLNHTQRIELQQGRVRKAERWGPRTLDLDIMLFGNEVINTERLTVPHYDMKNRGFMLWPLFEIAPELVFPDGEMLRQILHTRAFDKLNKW

For the compound `COc1ccc(Cc2cnc(N)nc2N)cc1OC` [DV, 2,4-diamino-5-(3',4'-dimethoxybenzyl) pyrimidine], the “activity alone against Pasteurella multocida” value in the series with Pasteurella multocida is recorded as “low activity alone”. For the same compound, in the series on Pasteurella multocida (Table 5, doses as in E44), the “Average Weight of surviving chicks” value was 140.0 gm; the “Cumulative Mortality on day 2” value is 2 and 1; the “Cumulative Mortality on day 5” value was 6 and 5; the “Cumulative Mortality on day 6” value is 6 and 8. Further, in the series with Pasteurella multocida (Table 5, doses as in E44), the “Cumulative Mortality on day 7” value is 7 and 9; the “Cumulative Mortality on day 8” value was 7 and 10; the “Cumulative Mortality on day 9” value came out at 7; the “Cumulative Mortality on day 10” value worked out at 7. Besides, the “Mortality from Coccidiosis” value with E. tenella is 8/10 and 8/9.
With `CC1=Nc2c(O)nc(N)nc2NC1(C)C` [R=Me, R^1=Me, R^2=Me, 2-Amino-4-hydroxy-6-methyl-7,7-dimethyl-7,8-dihydropteridine], the “potentiating effect against coccidiosis” value in the series on coccidiosis is “noticeable, athough less marked potentiating effect”. Also, the IC50 in [1] amounted to 75 µM.
With `Nc1ccc(S(=O)(=O)Nc2cnc3ccccc3n2)cc1` [SQX, sulphaquinoxaline], the “activity alone against Pasteurella multocida” value in the series with Pasteurella multocida is reported as “good activity alone”. Also, in the series with Pasteurella multocida (Table 5, doses as in E44), the “Average Weight of surviving chicks” value is 259.5 gm and 234.0 gm; the “Cumulative Mortality on day 5” value is on record as 1; the “Cumulative Mortality on day 6” value came to 1; the “Cumulative Mortality on day 7” value was determined as 1. In the series on Pasteurella multocida (Table 5, doses as in E44), the “Cumulative Mortality on day 8” value is 1, the “Cumulative Mortality on day 9” value turned out to be 1 and the “Cumulative Mortality on day 10” value came to 1. Moreover, the “Weight gain (% of control)” value in the series on Pasteurella multocida (Table 5, percentage of uninfected controls, doses as in E44) was 84 % of control and 69 % of control. For the same compound, in the series with Pasteurella multocida (Table 6, doses as in E56), the “Cumulative Mortality on day 6” value amounted to 1, the “Cumulative Mortality on day 7” value is 1, the “Cumulative Mortality on day 8” value was 1 and the “Cumulative Mortality on day 9” value is reported as 1. In the series on Pasteurella multocida (Table 6, doses as in E56), the “Cumulative Mortality on day 10” value is recorded as 1 and the “Cumulative Mortality on day 11” value was found to be 1. In the series on Pasteurella multocida (Table 6), the “Cumulative Mortality on day 1” value was found to be 0. In addition, the “Mortality from Coccidiosis” value in the series with E. tenella was 8/10 and 9/10.
`Cc1cc(NS(=O)(=O)c2ccc(N)cc2)no1` [Sulphamethoxazole, sulphamethoxazole]: the “Size of zone in cm (×6 magnification)” value is on record as 26 cm in series [2]; 32 cm in series [3]; 0 cm in series [4]; 36 cm with Proteus vulgaris CN 329; 28 cm with Escherichia coli CN 314. Moreover, the “Sulphamethoxazole M.I.C.” value in the series on Staphylococcus aureus [5] was 1.0 µg/mL. The inhibition at 0.1 µg/mL in series [6] (setting [8]) came to 16%.
As for `COc1cc(Cc2cnc(N)nc2N)cc(OC)c1OC` [Trimethoprim, 2,4-diamino-5-(3'4',5'-trimethoxybenzyl)pyrimidine], the “Size of zone in cm (×6 magnification)” value in series [2] stood at 21 cm. In addition, in the series on Pasteurella multocida (Table 6, doses as in E56), the “Cumulative Mortality on day 4” value came to 8 and the “Cumulative Mortality on day 6” value came out at 10. In addition, in the series with Pasteurella multocida (setting [9]), the “Cumulative Mortality on day 2” value is 4 and 2; the “Cumulative Mortality on day 3” value is 4 and 5; the “Cumulative Mortality on day 5” value was 10 and 8. Also, the “Cumulative Mortality on day 1” value in the series with Pasteurella multocida (Table 6) is given as 0. In addition, the “Size of zone in cm (×6 magnification)” value in series [3] came to 0 cm. The “Size of zone in cm (×6 magnification)” value in series [4] is listed as 28 cm. Moreover, in the series with Staphylococcus aureus [7] (setting [10]), the viability at 0.3 µg/mL is > 100% and the viability at 1 µg/mL was > 100%. For the same compound, in the series with Staphylococcus aureus [7] (Trimethoprim 0.3 μg./ml), the “Percentage of inoculum viable at 24 hrs.” value was > 100%. The “Percentage of inoculum viable at 24 hrs.” value in the series with Staphylococcus aureus [7] (Trimethoprim 1.0 μg./ml) is recorded as > 100%. Further, the “Size of zone in cm (×6 magnification)” value in the series with Proteus vulgaris CN 329 was determined as 19 cm. Also, the “Size of zone in cm (×6 magnification)” value with Escherichia coli CN 314 turned out to be 34 cm. Moreover, the “Percentage of inhibition at 7 hrs.” value in series [6] is 6 and 12. For the same compound, in series [6] (setting [8]), the inhibition at 0.002 µg/mL is 10% and the inhibition at 0.004 µg/mL came to 8%.

What is called IC50 is the concentration at which inhibition is half-maximal. For orientation: inhibition means the share of the control response that was lost under treatment.

(Values after patent US4795639A, “Potentiating formulations” (priority 1971, dated 1989).)
